Results: patent US20050227982A1, “Antileishmanial dinitroaniline sulfanomides with activity against parasite tubulin” (priority 2002, published 2005)
Read-outs that look alike come from different tables or passages of the source.

Experiments:
[1] = test system: L. donovani axenic amastigotes; assay: Growth inhibition of L. donovani axenic amastigotes (three-day tetrazolium dye assay); assay type: cell-based, Leishmania donovani; conditions: unit inferred; three-day tetrazolium dye assay; read-out: IC50, L. donovani axenic amastigotes
Method: 2000, 110, 223-236, incorporated herein by reference.^14
(§1) Determination of the drug susceptibility of parasites and mammalian cells. The susceptibility of Leishmania donovani amastigote-like parasites (WHO designation: MHOM/SD/62/1S-CL2D) to growth inhibition by compounds of interest was measured in a three-day assay using the tetrazolium dye-based CellTiter reagent (Promega) (Werbovetz, K., Brendle, J., and Sackett, D. (1999) Mol. Biochem. Parasitol. 98, 53-65., and Havens, C., Bryant, N., Asher, L., Lamoreaux, L., Perfetto, S., Brendle, J., and Werbovetz, K. (2000) Mol. Biochem. Parasitol. 110, 223-236). The amastigote medium used in this assay is based on the medium mentioned by Joshi et al. (Joshi, M., Dwyer, D. M., and Nakhasi, H. L. (1993) Mol. Biochem. Parasitol. 58, 345-354). Prior to addition of fetal bovine serum to a final concentration of 20%, this amastigote medium contains 15 mM KCl, 115 mM KH2PO4, 10 mM K2HPO4, 0.5 mM MgSO4, 24 mM NaHCO3, a 1-concentration of RPMI-1640 vitamins and amino acids, 2.0 mM L-glutamine, 22 mM D-glucose, 100 units/mL penicillin, 100 ∝g/ml streptomycin, 0.1 mM adenosine, 1 ∝g/mL folate, and 25 mM MES (pH 5.5). Compounds were tested for their activity against bloodstream-form Trypanosoma brucei brucei (MITat 1.2, variant 221) axenically-cultured in HMI-9 medium , H., and Hirumi, K. (1989) J. Parasitol. 75, 985-989.) following the procedure of Ellis et al. (Ellis, J., Fish, W., Sileghem, M., and McOdimba, F. (1993) Vet. Parasitol. 50, 143-149.) with some modifications. Briefly, 100 μL of late log phase parasites were incubated in 96-well plates (Costar) at an initial concentration of 10^5 cells/ml with or without test compounds at 37° C. in a humidified 5% CO2 atmosphere for 72 hours. Twenty-five μL of a 5 mg/mL solution of MTT (prepared in phosphate buffered saline and filter sterilized) was then added to each well and plates were re-incubated at 37° C. as before for 2 h. One hundred ∝L of 20% SDS lysis buffer (prepared in 50% aqueous DMF) was added to each well and plates were incubated as before for an additional 3-4 h. Optical densities were then measured at 570 nm using SpectraMax Plus microplate reader. […] Assessment of the in vitro sensitivity of T. b. brucei Lab 110 EATRO and P. falciparum strains to compounds was performed by methods described in Donkor et al. (Donkor, I., Assefa, H., Rattendi, D., Lane, S., Vargas, M., Goldberg, B., and Bacchi, C. (2001) Eur. J. Med. Chem. 36, 531-538.) and Guan et al. (Guan, J., Kyle, D., Gerena, L., Zhang, Q., Milhous, W., and Lin, A. (2002) J. Med. Chem. 45, 2741-2748).

[2] = test system: Trypanosoma brucei brucei (MITat 1.2, variant 221); assay: microbe, parasite or virus in culture; assay type: cell-based; conditions: unit inferred, read-out: IC50, T. b. brucei variant 221
Method: as §1

J774 murine macrophages = assay: Toxicity to J774 macrophages (three-day CellTiter assay); assay type: cell-based; conditions: unit inferred; read-out: IC50, J774 macrophages
Method: The toxicity of compounds to J774 murine macrophages and PC3 […] cells was measured in a three-day assay using the CellTiter reagent. […] Macrophages were allowed to adhere for 24 hours, then the medium was removed and replaced with serial dilutions of the test compounds in the DMEM medium mentioned above without phenol red. After 72 hr incubation with the test compounds at 37° C. in a humidified 5% CO2 incubator, cell viability was determined using the CellTiter reagent by adding 20 μL of assay solution to each well. After a 6-7 h incubation at 37° C. to allow for color development, the absorbance of each well at 490 nm was measured in a SpectraMax Pro microplate reader (Molecular Devices). The toxicity of compounds to PC3 cells was assessed in the same manner as for the macrophages, except that the medium used was RPMI 1640 supplemented with 10% heat inactivated fetal calf serum, 2.0 mM L-glutamine, 50 units/mL penicillin, and 50 ∝g/mL streptomycin. IC50 values for the J774 and PC3 assays were determined with the software program SoftMax Pro as described earlier.

Row | SMILES | IC50 [1] [µM] | IC50 [2] [µM] | IC50 (J774 murine macrophages) [µM] | IC50 ([2]; Trypanosoma brucei) [µM]
1 | CCCN(CCC)c1c([N+](=O)[O-])cc(S(=O)(=O)Nc2cccc(OC)c2)cc1[N+](=O)[O-] [Compound 30, N1-(3-Methoxy)phenyl-3,5-dinitro-N4,N4-di-n-propylsulfonilamide] | 8.11 ± 3.33 | 0.5 | 25.3 ± 3.8 | –
2 | CCN(CC)c1c([N+](=O)[O-])cc(S(=O)(=O)Nc2ccccc2)cc1[N+](=O)[O-] [Compound 31, N1-Phenyl-3,5-dinitro-N4,N4-di-n-ethylsulfonilamide] | 10.6 ± 2.6 | 1.9 | 47.7 ± 1.6 | –
3 | CCCCN(CCCC)c1c([N+](=O)[O-])cc(S(=O)(=O)Nc2ccccc2)cc1[N+](=O)[O-] [Compound 32, N1-Phenyl-3,5-dinitro-N4,N4-di-n-butylsulfonilamide] | 2.57 ± 0.25 | 0.1 | 11.9 ± 0.5 | –
4 | CCCN(CCC)c1c([N+](=O)[O-])cc(S(=O)(=O)NC)cc1[N+](=O)[O-] [Compound 33, N1-Methyl-3,5-dinitro-N4,N4di-n-propylsulfonilamide] | > 100 | 4.6 | – | –
5 | CCCN(CCC)c1c([N+](=O)[O-])cc(S(=O)(=O)N(C)C)cc1[N+](=O)[O-] [Compound 34, N1,M1-Dimethyl-3,5-dinitro-N4,N4-di-n-propylsulfonilamide] | > 100 | 5.9 | – | –
6 | CCCN(CCC)c1c([N+](=O)[O-])cc(S(=O)(=O)NCC)cc1[N+](=O)[O-] [Compound 35, N1-Ethyl-3,5-dinitro-N4,N4-di-n-propylsulfonilamide] | > 100 | 4 | – | –
7 | CCCN(CCC)c1c([N+](=O)[O-])cc(S(=O)(=O)N(CC)CC)cc1[N+](=O)[O-] [Compound 36, N1,N1-Diethyl-3,5-dinitro-N4,N4-di-n-propylsulfonilamide] | 26.7 ± 0.4 | 10.2 | – | –
8 | CCCN(CCC)c1c([N+](=O)[O-])cc(S(=O)(=O)NC(C)C)cc1[N+](=O)[O-] [Compound 38, N1-Isopropyl-3,5-dinitro-N4,N4-di-n-propylsulfonilamide] | 42.8 ± 2.3 | 2.5 | – | –
9 | CCCN(CCC)c1c([N+](=O)[O-])cc(S(=O)(=O)Nc2ccc(OC)cc2)cc1[N+](=O)[O-] [Compound 39, N1-(4-Methoxy)phenyl-3,5-dinitro-N4,N4-di-n-Propylsulfonilamide] | 31.9 ± 14.6 | 20.5 | 15.2 ± 6.7 | –
10 | CCCN(CCC)c1c([N+](=O)[O-])cc(S(=O)(=O)Nc2ccc(C)cc2)cc1[N+](=O)[O-] [Compound 40, N1-(4Methyl)phenyl-3,5-dinitro-N4,N4-di-n-propylsulfonilamide] | 32.1 ± 12.7 | 10.5 | 10.5 ± 2 | –
11 | CCCN(CCC)c1c([N+](=O)[O-])cc(S(=O)(=O)Nc2ccc(Cl)cc2)cc1[N+](=O)[O-] [Compound 41, N1-(4-Chloro)phenyl-3,5dinitro-N4,N4-di-n-propylsulfonilamide] | 13.3 ± 3 | 9.5 | 9.13 ± 3.81 | –
12 | CCCN(CCC)c1c([N+](=O)[O-])cc(S(=O)(=O)Nc2cccc(Cl)c2)cc1[N+](=O)[O-] [Compound 43, N1-(3-Chloro)phenyl-3,5-dinitro-N4,N4-di-n-propylsulfonilamide] | 5.47 ± 0.1 | 0.88 | 8.67 ± 0.17 | –
13 | CCCN(CCC)c1c([N+](=O)[O-])cc(S(=O)(=O)Nc2ccc(Cl)c(Cl)c2)cc1[N+](=O)[O-] [Compound 44, N1-(3,4-Dichloro)phenyl-3,5-dinitro-N4,N4-di-n-propylsulfonilamide] | 5.03 ± 0.8 | 6.7 | 7.19 ± 0.59 | –
14 | Cc1ccc(C(=O)Nc2ccc(S(=O)(=O)O)c3cc(S(=O)(=O)O)cc(S(=O)(=O)O)c23)cc1NC(=O)c1cccc(NC(=O)Nc2cccc(C(=O)Nc3cc(C(=O)Nc4ccc(S(=O)(=O)O)c5cc(S(=O)(=O)O)cc(S(=O)(=O)O)c45)ccc3C)c2)c1 [Suramin, reference compound] | – | – | – | 0.233 ± 0.05
